Test results published in patent US8215314B2, “Photochemical tissue bonding” (The General Hospital Corporation, priority 2000, dated 2012).

What was measured:
pig vein and arteries = experiment: Ex vivo porcine blood vessel anastomosis by PTB (cuff approach), tensile strength; settings: 0.1% v/v in saline, 532 nm, 0.5 W/cm2 for 2.5 minutes
From the text: In adhering segments of vascular tissue according to methods of the invention, two pieces of blood vessel are joined and photochemically bonded together to create an intimate, watertight seal. Two methods were considered to accomplish anastomosis. The “cuff” approach, which entails administration of the photoactive dye to the outer surface of the proximal vessel and the inside surface of the distal stump of the vessel. The distal stump is folded back on itself and the proximal stump brought into contact. The distal cuff is then placed over the proximal vessel to form a cuff. The overlap region in the cuff is then irradiated with visible light to bond the ends of the vessel together. FIG. 30 represents a schematic overview of the cuff approach.
The cuff approach was used with pig vein and arteries ex vivo. The vessels were sharply transected using a scalpel. Rose bengal at a concentration of 0.1% v/v in saline was applied to the outside surface of the proximal stump of the vessel and the inside surface of the distal vessel. The vessels were then mounted over a cylindrical glass rod that acts as support for the hollow vessels. A distal cuff was formed by folding the end of the distal end back on itself, as described above and in FIG. 30. […]

[1] = tested on: collagen gel implant on rat latissimus dorsi muscle flap; experiment: Adherence of collagen-based esophagus implant to host muscle flap after PTB, ex vivo; settings: for adherence of collagen implant on muscle flap: 0.1% RB, 514 nm
Method: An ex vivo experimental system was developed to investigate the effect of PTB on the bonding of an engineered, collagen-based, esophagus implant to host muscle flap tissue without the need for silicon tubing.
FIG. 14 provides an overview of the experimental methods. Esophageal keratinocytes were seeded on uncontracted collagen gel (ICN Biomedicals) for about one week until confluence was reached. A 1×1 cm piece of seeded collagen gel was removed (implant) from the culture dish and a suture loop was laced through at its edge. An equivalently-sized section of rat latissimus dorsi muscle flap was secured onto a flat plastic surface with sutures. Rose bengal (RB) at 0.1% (w/v), a photosensitizer having an absorption maximum and absorption coefficient of 550 nm and 33,000 dm^3/mo/cm at 514 nm, respectively, was applied to the collagen side of the implant and the surface of the muscle flap and incubated for about two minutes. The esophagus implant and the muscle flap were approximated with the dye-treated surfaces facing each other by gently pressing over the esophagus implants without damaging the keratinocyte layer. Excess dye was removed by aspiration and blotting. […]
Following irradiation, the adherence of the collagen-based esophageal implant to the host muscle flap was tested for the 50 J/cm^2 sample, 100 J/cm^2 sample, and the three controls, using a tensiometer (Chartillon) coupled to a force transducer (DFA2, Ametek). The adherence (N/cm^2; N=force applied, cm^2=area of collagen implant) of the collagen implant on the muscle flap was determined from the force-deflection curve, generated by plotting the amount of peeling force applied to the collagen implant to the force plate displacement level of the force transducer. It was observe that the mean adherence measurements determined for the negative, RB, and laser controls were 0.05, 0.06, and 0.07 N/cm^2, respectively (FIG. 15). In contrast, the adherence measurements determined for the 50 and 100 J/cm^2 composite samples were 0.15 and 0.13 N/cm^2, respectively (FIG. 15).

O=C([O-])c1c(Cl)c(Cl)c(Cl)c(Cl)c1-c1c2cc(I)c(=O)c(I)c-2oc2c(I)c([O-])c(I)cc12.[Na+].[Na+] [Rose Bengal]
stretch of anastomosed vessels before rupture (pig vein and arteries): 3-4 times their normal length | adherence of collagen implant on muscle flap ([1]; 0.25 W/cm^2, 50 J/cm^2): 0.15 N/cm^2 | adherence of collagen implant on muscle flap ([1]; 0.25 W/cm^2, 100 J/cm^2): 0.13 N/cm^2 | mean adherence of collagen implant on muscle flap ([1]; RB control: 0.1% RB treated, nonirradiated): 0.06 N/cm^2
